Data taken from PubChem BioAssay (NCI).
“And” between values parts separate entries of the source, which are not always exact repeats. Equal entries are not always repeated.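 Test compounds were applied to cells in 96-well plates for 48 hours at 5 doses. The concentration for 50% growth inhibition is given as GI50. TGI marks complete inhibition of growth.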

Legend:
Assay in all cases: NCI anticancer screen, dose series, 48 h
HOP-92 NSCLC = test system: HOP-92 NSCLC
NCI/ADR-RES ovarian = test system: NCI/ADR-RES ovarian
HT29 colon = test system: HT29 colon
HOP-62 NSCLC = test system: HOP-62 NSCLC
OVCAR-8 ovarian = test system: OVCAR-8 ovarian
MOLT-4 leukemia = test system: MOLT-4 leukemia
EKVX NSCLC = test system: EKVX NSCLC
HL-60(TB) leukemia = test system: HL-60(TB) leukemia
SNB-19 CNS = test system: SNB-19 CNS
SNB-75 CNS = test system: SNB-75 CNS

Row | Structure (SMILES) | GI50 (HOP-92 NSCLC) | TGI (HOP-92 NSCLC) | GI50 (NCI/ADR-RES ovarian) | TGI (NCI/ADR-RES ovarian) | GI50 (HT29 colon) | TGI (HT29 colon) | GI50 (HOP-62 NSCLC) | TGI (HOP-62 NSCLC) | GI50 (OVCAR-8 ovarian) | TGI (OVCAR-8 ovarian) | GI50 (MOLT-4 leukemia) | TGI (MOLT-4 leukemia) | GI50 (EKVX NSCLC) | TGI (EKVX NSCLC) | GI50 (HL-60(TB) leukemia) | TGI (HL-60(TB) leukemia) | GI50 (SNB-19 CNS) | TGI (SNB-19 CNS) | GI50 (SNB-75 CNS) | TGI (SNB-75 CNS)
1 | CCN(CC)CCC(CNc1c2ccc([N+](=O)[O-])cc2nc2cc(OC)c(OC)cc12)c1ccccc1 (stereo not given) | 0.258 µM and 0.0809 µM | 0.85 µM and 0.404 µM | 1.53 µM and 1.72 µM | 5.1 µM and 5.07 µM | 0.0405 µM and 0.0289 µM | 0.239 µM and 0.1 µM | 0.284 µM and 0.226 µM | 1.23 µM and 1.1 µM | 0.45 µM and 0.166 µM | 1.87 µM and 0.978 µM | 0.317 µM and 0.444 µM | 2.41 µM and 5.93 µM | 0.335 µM and 0.264 µM | 1.38 µM and 1.13 µM | 1.82 µM and 2.4 µM | 3.88 µM and 5.12 µM | 0.214 µM and 0.177 µM | 1.24 µM | 0.33 µM and 0.673 µM | 1.62 µM and 2.15 µM
2 | O=C(O)c1ccc([N+](=O)[O-])c(P(=O)(O)O)c1 |  | > 100 µM |  | > 100 µM |  | > 100 µM |  | > 100 µM |  | > 100 µM |  | > 100 µM |  | > 100 µM |  | > 100 µM |  | > 100 µM |  | 
3 | S=C(Nc1ccc(-c2nc3ccccc3s2)cc1)Nc1ccccn1 | 16.7 µM | 64.1 µM | 24.6 µM | 66.6 µM | 28.3 µM | > 80.4 µM | 44.4 µM | > 100 µM | 32.6 µM | > 73.9 µM | 18.8 µM | > 86.7 µM | 12.2 µM | > 50.1 µM | 30.7 µM | > 100 µM | 36.1 µM | > 100 µM | 12 µM | > 51.2 µM
4 | CCN1CCN(CCNc2nccc(-c3c(-c4cccc(O)c4)nc4sccn34)n2)S1(=O)=O | 6.2 µM and 0.671 µM | 32.5 µM and 69.9 µM | 23.3 µM and 26.5 µM | 32.5 µM and 86.1 µM | 4.53 µM and 2.2 µM | 32.5 µM and 31.7 µM | > 32.5 µM and 26.4 µM | > 100 µM | 16.1 µM and 10.9 µM | 32.5 µM and > 100 µM | 19.2 µM and 21.7 µM | 32.5 µM and 57.6 µM | > 32.5 µM and 34.6 µM | > 100 µM | 11.8 µM | 32.5 µM | > 32.5 µM and 71.5 µM | > 100 µM | 12.6 µM and 6.84 µM | 32.5 µM and > 100 µM
5 | O=C(/C=C/c1ccccc1O)c1ccccc1 | 8.77 µM | 23 µM | 21.7 µM | > 100 µM | 3.55 µM | 15.4 µM | 17.2 µM | 52.7 µM | 4.39 µM | 17.7 µM | 2.78 µM | 14.3 µM | 11 µM | 29.2 µM | 1.52 µM | 11.1 µM | 12.6 µM | 25.3 µM |  | 
6 | NC(Cc1cc(Br)c(O)c(Br)c1)C(=O)O (stereo not given) |  | > 100 µM |  | > 100 µM |  | > 100 µM |  | > 100 µM |  | > 100 µM |  | > 100 µM |  | > 100 µM |  | > 100 µM |  | > 100 µM |  | > 100 µM
7 | CNC(=O)c1cc(Oc2ccc3nc(NC(=O)c4cc(C(F)(F)F)cc(C(F)(F)F)c4)sc3c2)ccn1 | 1.68 µM | 7.21 µM | 3.67 µM | 19.1 µM | 3.85 µM | 16.8 µM | 3.36 µM | 10.8 µM | 3.06 µM | 13 µM | 2.62 µM | 12.4 µM | 3.43 µM | 23.3 µM | 2.49 µM | 5.11 µM | 3.76 µM | 22.8 µM | 3.13 µM | 14.8 µM
8 | COC(=O)C1=C(C(=O)Nc2cccnc2)C2OC1(C(Cc1ccccc1)Oc1ccccc1)C1OC21 (stereo not given) | 1.46 µM | 3 µM | 18.8 µM | 56.5 µM | 2.73 µM | 6.97 µM | 13.2 µM | 26.1 µM | 7.94 µM | 22.8 µM | 1.75 µM | 5.2 µM | 11.8 µM | 27.2 µM | 0.569 µM | 2.75 µM | 14.8 µM | 28.8 µM | 8.28 µM | 21.1 µM
9 | CCOc1ccc(/C=N/Nc2cc(C)nc3ccc(Cl)cc23)cc1 | 2.1 µM | 7.08 µM | 1.9 µM | 3.86 µM | 1.9 µM | 3.47 µM | 2.31 µM | 6.53 µM | 2.34 µM | 5.19 µM | 1.89 µM | 3.85 µM | 2.18 µM | 5.25 µM | 1.86 µM | 3.73 µM | 2.37 µM | 5.07 µM | 1.86 µM | 3.64 µM
10 | CCCCC(SC(=S)N(CC)CC)C(=O)Nc1nc(CC(=O)OCC)cs1 (stereo not given) | 53.1 µM | > 100 µM | 42.9 µM | > 100 µM | 32.7 µM | > 100 µM | > 100 µM | > 100 µM | 41.4 µM | > 100 µM | 20.2 µM | > 100 µM | 45.7 µM | > 100 µM | 28.6 µM | 98.5 µM | 56.9 µM | > 100 µM | 67 µM | > 100 µM
11 | Nc1nn(C(=O)Nc2ccc(Cc3ccccc3)cc2)c2ccc(Cl)cc12 | 13.4 µM | 42 µM | 7.89 µM | 51.6 µM | 3.54 µM | 27.3 µM | 1.33 µM | 14.8 µM | 14.8 µM | > 100 µM | 4.87 µM | 47 µM | 5.85 µM | 98.8 µM | 6.57 µM | 44.6 µM | 18.1 µM | 51.7 µM | 15 µM | 35.2 µM
12 | C[C@H]1O[C@@H](O[C@H]2[C@@H](O)C[C@H](O[C@H]3[C@@H](O)C[C@H](O[C@H]4CC[C@]5(C)C6C[C@@H](O)[C@]7(C)[C@@H](C8=CC(=O)OC8)CC[C@]7(O)C6CC[C@@H]5C4)O[C@@H]3C)O[C@@H]2C)C[C@H](O)[C@@H]1O (stereo not given in full) | 0.112 µM | 0.529 µM | 0.0552 µM | 0.147 µM | 0.0893 µM | 0.293 µM | 0.038 µM | 0.102 µM | 0.0788 µM | 0.198 µM | 0.0176 µM | 0.147 µM | 0.0377 µM | 0.124 µM | 0.034 µM | 0.12 µM | 0.175 µM | 0.678 µM | 0.08 µM | 0.221 µM
13 | Cc1ccccc1NC(=O)N/C(N)=N/c1nc2ccccc2s1 |  | > 100 µM | 0.0372 µM | 5.84 µM | 0.039 µM | > 100 µM | 0.11 µM | > 100 µM | 0.0979 µM | > 43.2 µM | 0.0569 µM | > 100 µM |  | > 100 µM | 0.0285 µM | 0.15 µM | 0.104 µM | > 100 µM | < 0.0165 µM | 0.446 µM
